pIC50: −log10 of the molar value.
Columns and labels:
IL-17A/A = biological target: T1, IL-17A/A (Homo sapiens, UniProt Q16552); test: IL-17A/A HEK-Blue cell assay (SEAP reporter); type: cell-based; conditions: HEK-Blue IL-17A reporter cells, IL17A/A 5 ng/mL, 20 hours, SEAP read at A630; read-out: HEK-Blue IL17AA (IC50 for IL-17A/A inhibition)
T1 construct: purchased Genscript Z03228
T1 sequence (Q16552 24-155): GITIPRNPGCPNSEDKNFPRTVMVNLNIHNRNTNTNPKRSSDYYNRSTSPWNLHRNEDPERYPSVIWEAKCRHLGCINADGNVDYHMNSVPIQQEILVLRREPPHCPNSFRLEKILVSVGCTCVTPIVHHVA

IL-17A/F = biological target: T2, IL-17A/F (Homo sapiens, UniProt Q16552+Q96PD4); test: IL-17A/F HEK-Blue cell assay (SEAP reporter); type: cell-based; conditions: HEK-Blue IL-17A reporter cells, IL17A/F 5 ng/mL, 20 hours, SEAP read at A630; read-out: HEK-Blue IL17AF (IC50 for IL-17A/F inhibition)
T2 construct: purchased R&D Systems
T2 sequence (Q16552 24-155): T1 sequence (Q16552 24-155)
T2 sequence (Q96PD4 31-163): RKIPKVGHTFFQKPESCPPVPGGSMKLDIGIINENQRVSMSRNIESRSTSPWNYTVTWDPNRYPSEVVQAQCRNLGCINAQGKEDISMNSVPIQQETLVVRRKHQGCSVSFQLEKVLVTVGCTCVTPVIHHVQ

Row | Compound | pIC50 (IL-17A/A) | pIC50 (IL-17A/F)
1 | CCn1nccc1C(=O)N[C@H](c1cn2nc(C[C@H]3C[C@@H](C(F)(F)F)CNC3=O)c(CC3COCCO3)nc2n1)C1CCC(F)(F)CC1 (stereo partly drawn) [Compound 173, N-((1S)-(3-((1,4-dioxan-2-yl)methyl)-2-(((3R,5R)-2-oxo-5-(trifluoromethyl)piperidin-3-yl)methyl)imidazo[1,2-b][1,2,4]triazin-6-yl)(4,4-difluorocyclohexyl)methyl)-1-ethyl-1H-pyrazole-5-carboxamide] | 6.00 to 7.00 | < 6.00
2 | CCn1nccc1C(=O)N[C@H](c1cn2nc(C[C@H]3C[C@@H](C(F)(F)F)CNC3=O)c(N(C)C3COC3)nc2n1)C1CCC(F)(F)CC1 [Compound 180, N—((S)-(4,4-difluorocyclohexyl)(3-(methyl(oxetan-3-yl)amino)-2-(((3R,5R)-2-oxo-5-(trifluoromethyl)piperidin-3-yl)methyl)imidazo[1,2-b][1,2,4]triazin-6-yl)methyl)-1-ethyl-1H-pyrazole-5-carboxamide] | 6.00 to 7.00 | < 6.00
3 | O=C(N[C@H](c1cn2nc(C[C@H]3C[C@@H](C(F)(F)F)CNC3=O)c(C3CCOCC3)nc2n1)C1CCC(F)(F)CC1)c1ccnn1CC(F)(F)F [Compound 186, N-((1S)-(4,4-difluorocyclohexyl)(2-(((3R,5R)-2-oxo-5-(trifluoromethyl)piperidin-3-yl)methyl)-3-(tetrahydro-2H-pyran-4-yl)imidazo[1,2-b][1,2,4]triazin-6-yl)methyl)-1-(2,2,2-trifluoroethyl)-1H-pyrazole-5-carboxamide] | > 7.00 | 6.00 to 7.00
4 | O=C(N[C@H](c1cn2nc(C[C@H]3C[C@@H](C(F)(F)F)CNC3=O)c(C3CCOCC3)nc2n1)C1CCC(F)(F)CC1)c1ccnn1CC(F)F [Compound 187, N-((1S)-(4,4-difluorocyclohexyl)(2-(((3R,5R)-2-oxo-5-(trifluoromethyl)piperidin-3-yl)methyl)-3-(tetrahydro-2H-pyran-4-yl)imidazo[1,2-b][1,2,4]triazin-6-yl)methyl)-1-(2,2-difluoroethyl)-1H-pyrazole-5-carboxamide] | > 7.00 | 6.00 to 7.00
5 | O=C(N[C@H](c1cn2nc(C[C@H]3C[C@@H](C(F)(F)F)CNC3=O)c(C3CCOCC3)nc2n1)C1CCC(F)(F)CC1)c1ccnn1CCF [Compound 188, N-((1S)-(4,4-difluorocyclohexyl)(2-(((3R,5R)-2-oxo-5-(trifluoromethyl)piperidin-3-yl)methyl)-3-(tetrahydro-2H-pyran-4-yl)imidazo[1,2-b][1,2,4]triazin-6-yl)methyl)-1-(2-fluoroethyl)-1H-pyrazole-5-carboxamide] | > 7.00 | 6.00 to 7.00
6 | Cc1nocc1C(=O)N[C@H](c1cn2nc(C[C@H]3C[C@@H](C(F)(F)F)CNC3=O)c(C3CCOCC3)nc2n1)C1CCC(F)(F)CC1 [Compound 189, N-((1S)-(4,4-difluorocyclohexyl)(2-(((3R,5R)-2-oxo-5-(trifluoromethyl)piperidin-3-yl)methyl)-3-(tetrahydro-2H-pyran-4-yl)imidazo[1,2-b][1,2,4]triazin-6-yl)methyl)-3-methylisoxazole-4-carboxamide] | > 7.00 | 6.00 to 7.00
7 | O=C(N[C@H](c1cn2nc(C[C@H]3C[C@@H](C(F)(F)F)CNC3=O)c(C3CCOCC3)nc2n1)C1CCC(F)(F)CC1)c1nonc1C(F)F [Compound 190, N-((1S)-(4,4-difluorocyclohexyl)(2-(((3R,5R)-2-oxo-5-(trifluoromethyl)piperidin-3-yl)methyl)-3-(tetrahydro-2H-pyran-4-yl)imidazo[1,2-b][1,2,4]triazin-6-yl)methyl)-4-(difluoromethyl)-1,2,5-oxadiazole-3-carboxamide] | > 7.00 | < 6.00
8 | O=C(N[C@H](c1cn2nc(C[C@H]3C[C@@H](C(F)(F)F)CNC3=O)c(C3CCOCC3)nc2n1)C1CCC(F)(F)CC1)c1conc1C(F)(F)F [Compound 191, N-((1S)-(4,4-difluorocyclohexyl)(2-(((3R,5R)-2-oxo-5-(trifluoromethyl)piperidin-3-yl)methyl)-3-(tetrahydro-2H-pyran-4-yl)imidazo[1,2-b][1,2,4]triazin-6-yl)methyl)-3-(trifluoromethyl)isoxazole-4-carboxamide] | > 7.00 | 6.00 to 7.00
9 | CCn1nccc1C(=O)N[C@H](c1cn2nc(C[C@H]3C[C@@H](C(F)(F)F)CNC3=O)c(N3CCC(F)(F)CC3)nc2n1)C1CCC(F)(F)CC1 [Compound 192, N—((S)-(4,4-difluorocyclohexyl)(3-(4,4-difluoropiperidin-1-yl)-2-(((3R,5R)-2-oxo-5-(trifluoromethyl)piperidin-3-yl)methyl)imidazo[1,2-b][1,2,4]triazin-6-yl)methyl)-1-ethyl-1H-pyrazole-5-carboxamide] | > 7.00 | 6.00 to 7.00
10 | CCn1nccc1C(=O)N[C@H](c1cn2nc(C[C@H]3C[C@@H](C(F)(F)F)CNC3=O)c(N3CC4(CCOC4)C3)nc2n1)C1CCC(F)(F)CC1 [Compound 193, N—((S)-(4,4-difluorocyclohexyl)(2-(((3R,5R)-2-oxo-5-(trifluoromethyl)piperidin-3-yl)methyl)-3-(6-oxa-2-azaspiro[3.4]octan-2-yl)imidazo[1,2-b][1,2,4]triazin-6-yl)methyl)-1-ethyl-1H-pyrazole-5-carboxamide] | > 7.00 | 6.00 to 7.00
11 | CCn1nccc1C(=O)N[C@H](c1cn2nc(C[C@H]3C[C@@H](C(F)(F)F)CNC3=O)c(N3CCC(C)(O)CC3)nc2n1)C1CCC(F)(F)CC1 [Compound 194, N—((S)-(4,4-difluorocyclohexyl)(3-(4-hydroxy-4-methylpiperidin-1-yl)-2-(((3R,5R)-2-oxo-5-(trifluoromethyl)piperidin-3-yl)methyl)imidazo[1,2-b][1,2,4]triazin-6-yl)methyl)-1-ethyl-1H-pyrazole-5-carboxamide] | > 7.00 | 6.00 to 7.00
12 | CCn1nccc1C(=O)N[C@H](c1cn2nc(C[C@H]3C[C@@H](C(F)(F)F)CNC3=O)c(N(C)CC3(C)COC3)nc2n1)C1CCC(F)(F)CC1 [Compound 195, N—((S)-(4,4-difluorocyclohexyl)(3-(methyl((3-methyloxetan-3-yl)methyl)amino)-2-(((3R,5R)-2-oxo-5-(trifluoromethyl)piperidin-3-yl)methyl)imidazo[1,2-b][1,2,4]triazin-6-yl)methyl)-1-ethyl-1H-pyrazole-5-carboxamide] | 6.00 to 7.00 | < 6.00

Second part, the molecule after the results:

Row | pIC50 (IL-17A/A) | pIC50 (IL-17A/F) | Compound
13 | > 7.00 | > 7.00 | CCn1nccc1C(=O)N[C@H](c1cn2nc(C[C@H]3C[C@@H](C(F)(F)F)CNC3=O)c(CC3CCOCC3)nc2n1)[C@H]1CC[C@H](C)CC1 [Compound 179, 1-ethyl-N-((1S)-((1R,4S)-4-methylcyclohexyl)(2-(((3R,5R)-2-oxo-5-(trifluoromethyl)piperidin-3-yl)methyl)-3-((tetrahydro-2H-pyran-4-yl)methyl)imidazo[1,2-b][1,2,4]triazin-6-yl)methyl)-1H-pyrazole-5-carboxamide]
14 | > 7.00 | < 6.00 | O=C(N[C@H](c1cn2nc(C[C@H]3C[C@@H](C(F)(F)F)CNC3=O)c(N3CCOCC3)nc2n1)C1CCC(F)(F)CC1)OCc1cc(C(F)(F)F)on1 [Compound 181, (5-(trifluoromethyl)isoxazol-3-yl)methyl ((S)-(4,4-difluorocyclohexyl)(3-morpholino-2-(((3R,5R)-2-oxo-5-(trifluoromethyl)piperidin-3-yl)methyl)imidazo[1,2-b][1,2,4]triazin-6-yl)methyl)carbamate]
15 | > 7.00 | > 7.00 | CCn1nccc1C(=O)N[C@H](c1cn2nc(C[C@H]3C[C@@H](C(F)(F)F)CNC3=O)c(C3CCC(F)(F)CC3)nc2n1)C1CCC(F)(F)CC1 [Compound 182, N-((1S)-(4,4-difluorocyclohexyl)(3-(4,4-difluorocyclohexyl)-2-(((3R,5R)-2-oxo-5-(trifluoromethyl)piperidin-3-yl)methyl)imidazo[1,2-b][1,2,4]triazin-6-yl)methyl)-1-ethyl-1H-pyrazole-5-carboxamide]
16 | > 7.00 | 6.00 to 7.00 | O=C(N[C@H](c1cn2nc(C[C@H]3C[C@@H](C(F)(F)F)CNC3=O)c(C3CCOCC3)nc2n1)C1CCC(F)(F)CC1)OCc1cc(C(F)(F)F)on1 [Compound 183, (5-(trifluoromethyl)isoxazol-3-yl)methyl ((1S)-(4,4-difluorocyclohexyl)(2-(((3R,5R)-2-oxo-5-(trifluoromethyl)piperidin-3-yl)methyl)-3-(tetrahydro-2H-pyran-4-yl)imidazo[1,2-b][1,2,4]triazin-6-yl)methyl)carbamate]
17 | > 7.00 | < 6.00 | O=C(N[C@H](c1cn2nc(C[C@H]3C[C@@H](C(F)(F)F)CNC3=O)c(C3CCOCC3)nc2n1)C1CCC(F)(F)CC1)c1ccnn1C(F)(F)F [Compound 184, N-((1S)-(4,4-difluorocyclohexyl)(2-(((3R,5R)-2-oxo-5-(trifluoromethyl)piperidin-3-yl)methyl)-3-(tetrahydro-2H-pyran-4-yl)imidazo[1,2-b][1,2,4]triazin-6-yl)methyl)-1-(trifluoromethyl)-1H-pyrazole-5-carboxamide]
18 | > 7.00 | 6.00 to 7.00 | O=C(N[C@H](c1cn2nc(C[C@H]3C[C@@H](C(F)(F)F)CNC3=O)c(C3CCOCC3)nc2n1)C1CCC(F)(F)CC1)c1ccnn1C(F)F [Compound 185, N-((1S)-(4,4-difluorocyclohexyl)(2-(((3R,5R)-2-oxo-5-(trifluoromethyl)piperidin-3-yl)methyl)-3-(tetrahydro-2H-pyran-4-yl)imidazo[1,2-b][1,2,4]triazin-6-yl)methyl)-1-(difluoromethyl)-1H-pyrazole-5-carboxamide]

— patent US20260226068A1, “IMIDAZOTRIAZINE IL-17A MODULATORS AND USES THEREOF” (DICE ALPHA, INC., priority 2023, published 2026)
